Experimental data: patent publication US20160228565A1, “POLYAMIDE BASED PEPTID[…]” (New York University, priority 2014, published 2016)

System: HSV-1 (strain SC16)
Experiment: Virus yield reduction assay (plaque assay, Vero cell monolayers)
Format: cell-based
Protocol: African green monkey kidney cells (Vero) (ATCC CCL-81) were grown in Dulbecco's modified Eagle's medium (DMEM) supplemented with 10% fetal calf serum. HSV-1 (strain SC16), carrying a lacZ gene driven by the CMV IE-1 promoter to express β-galactosidase, was propagated on Vero cells monolayers.
For all experiments, peptides, dendrimers, and peptidodendrimers were dissolved in DMEM without serum and used at concentrations of 0, 5.5, 55, 280, and 550 nM. All experiments were conducted in triplicate. The percentage of infectivity inhibition was calculated by setting the number of plaques obtained in positive controls where no antiviral compounds were added to the cell monolayers to 0% inhibition.
Confluent Vero cell monolayers (12-well plates) were washed with phosphate-buffered saline (PBS) and infected with HSV-1 at multiplicity of infection (MOI) of 1 plaque-forming unit (pfu)/cell for 1 hour at 37° C. The virus inocula were mixed with the peptide/dendrimer/conjugate(s) to be tested, as described in Example 3 above. […] Plaques were stained with X-gal (5-bromo-4-chloro-3-indolyl-([…]-galactopyranoside) and microscopically counted. The mean plaque counts for each drug concentration were expressed as a percentage of the mean plaque count for the control virus. The number of plaques was plotted as a function of drug concentration. See FIG. 6. […]

Row | Sequence | inhibitory concentration (range in words) (peptide alone vs peptide conjugated to dendrimer) | antiviral activity relative to comparators (in words) (HSV-1 on Vero cells, FIGS. 6 and 18)
1 | FARLQFTYNHIQRHVRDMEGR (SEQ ID NO: 23) (HSV-1 envelope glycoprotein-derived peptide) [gB8, Residues 503-523 of envelope glycoprotein B] | micromolar | 
2 | AAHLIDALYAEFLGGRVLTT (SEQ ID NO: 53) (HSV-1 envelope glycoprotein-derived peptide) [PgH, Residues 493-512 of envelope glycoprotein H] |  | less active than gB8
